{
  "source": "patent US7994127B2",
  "about": "“Treatment of rett syndrome” (Massachusetts Institute of Technology, priority 2007, dated 2011)",
  "key": {"wild type young mice": {"system": "wild type young mice", "details": "Tropea et al., 2006; cited from earlier work"}, "[1]": {"system": "neurons in the CA3 region of the hippocampus", "assay": "Neuron soma size in hippocampus", "format": "in vivo, mouse", "procedure": "We also measured the effect of (1-3)IGF1 treatment on neuron soma size in hippocampus. Mice were treated with (1-3)IGF1 as described above for locomotor activity."}, "MeCP2−/y mice": {"system": "MeCP2−/y mice", "assay": "Heart rate measurements (real time cardiac pulse rate, tail clip sensor)", "format": "in vivo, mouse", "details": "8 week old MeCP2−/y mice, treated from P15 (6 weeks), non-anesthetized"}, "[2]": {"system": "layer 5 pyramidal neurons in motor cortex of MeCP2 knockout mice", "assay": "Golgi staining, dendritic spine density and morphology", "format": "in vivo, mouse"}, "MeCP2 KO mice": {"system": "MeCP2 KO mice", "assay": "Nocturnal activity measurements (infrared beam interruptions)", "format": "in vivo, mouse", "details": "for nocturnal locomotor activity, beam interruptions over 10 hours (FIG. 4B): 6 to 17 weeks of age", "procedure": "(1-3)IGF-1 treatment: For the survival measurements, the nocturnal activity analysis and the immunoblot analysis, (1-3) IGF-1 (Bachem Biosciences # H22468) was administered daily via intra-peritoneal injections (0.01 mg/g body weight, vehicle=saline, 0.01% BSA). The treatment was started at P15 and maintained throughout the course of the experiments. For intracellular physiology experiments, the mice were injected daily (0.01 mg/g body weight, vehicle=saline, 0.01% BSA) for 2 weeks, from P15 to P28-P32 when they were used for acute slice preparation. For optical imaging experiments, mice were injected with (1-3) IGF-1 (0.02 mg/g body weight, vehicle=saline, 0.01% BSA) daily from the day of the lid suture to the day of imaging. Slice physiology preparation: Coronal sections (300 μm thick) at or near sensorimotor cortex were cut in <4° C. ACSF using a Vibratome. Slices were incubated at 37° C. for 20 minutes after slicing, and at room temperature for the remainder of the experiment. Slices were transferred to a Warner chamber and recordings were taken from visually identified pyramidal neurons located in layer 5. Artificial cerebral spinal fluid (ACSF) contained 126 mM NaCl, 25 mM NaHCO3, 1 mM NaHPO4, 3 mM KCl, 2 mM MgSO4, 2 mM CaCl2, and 14 mM dextrose, was adjusted to 315-320 mOsm and 7.4 pH, and was bubbled with 95% O2/5% CO2. The intracellular pipette solution contained 100 mM potassium gluconate, 20 mM KCl, 10 mM HEPES, 4 mM MgATP, 0.3 mM NaGTP, and 10 mM Na-phosphocreatine. […] Cells were visualized with an Achroplan 40× water-immersion lens with infrared-DIC optics (Zeiss) and detected with an infrared camera (Hamamatsu) projecting to a video monitor. […] Then in current clamp ˜10 pulses (500 ms, 40-140 pA at 10 pA increments), were applied to quantify evoked firing rates and cellular excitability. […] Analysis was performed using a custom software package written in Matlab, with all events detected according to automated thresholds and blindly verified for each event individually by the experimenter. […]"}, "[3]": {"details": "P28, knockout treated vs knockout and wild-type"}},
  "note": "“Also recorded” adds a separate entry of the source.",
  "data": [
    {"smiles": "NCC(=O)N1CCC[C@H]1C(=O)N[C@@H](CCC(=O)O)C(=O)O", "note": "[(1-3)IGF-1, glycyl-L-prolyl-L-glutamic acid]", "values": [
      {"measurement": "OD plasticity", "setting": "wild type young mice", "value": "abolish OD plasticity"},
      {"measurement": "average soma size (cell perimeter, FIG. 7)", "setting": "[1]; MeCP2 KO animals, treated as for locomotor activity", "value": "increased average soma size in KO animals"},
      {"measurement": "size of cell bodies", "setting": "[1]; as a result of the knockout or treatment (Discussion)", "value": "no change was observed"},
      {"measurement": "soma size (cell perimeter, FIG. 7)", "setting": "[1]; wild type animals treated", "value": "had no effect on soma size in wild type animals"},
      {"measurement": "heart rate distribution / occurrence of irregular, lower heart rate (bradycardia, FIG. 4A)", "setting": "MeCP2−/y mice", "value": "significantly reduced; also recorded: partial rescue of the KO phenotype"},
      {"measurement": "over-representation of thin (immature) spines (FIG. 2D)", "setting": "[2]; P28, knockout treated vs knockout", "value": "not ameliorated by the treatment"},
      {"measurement": "% mushroom (mature) spines (FIG. 2D)", "setting": "[2]; [3]", "value": "reduced in the knockout compared to wild-type and knockout treated with (1-3)IGF1"},
      {"measurement": "dendritic spine density (spines per length of dendrite, FIG. 2C)", "setting": "[2]; [3]", "value": "spine densities more similar to wild-type values"},
      {"measurement": "average dendritic branch thickness (FIG. 2E)", "setting": "[2]; P28, wild-type, knockout, knockout treated", "value": "did not vary"},
      {"measurement": "nocturnal locomotor activity, beam interruptions over 10 hours (FIG. 4B)", "setting": "MeCP2 KO mice; MeCP2 KO mice, 0.01 mg/g IP daily from P15, vs vehicle KO", "value": "elevated these levels; also recorded: more active than vehicle-treated KO animals (KO) but not as active as WT"},
      {"measurement": "nocturnal locomotor activity, beam interruptions over 10 hours (FIG. 4B)", "setting": "MeCP2 KO mice; wild-type mice treated (WT-T) vs WT", "value": "failing to increase activity in wild-type animals; also recorded: not significantly more active than WT"},
      {"measurement": "nocturnal locomotor activity, beam interruptions over 10 hours (FIG. 6)", "setting": "MeCP2 KO mice; young mice, 4 to 5 weeks of age", "value": "treatment did not change activity levels"}
    ]}
  ]
}
